Assay results from ChEMBL document CHEMBL1146185, “P2-P4 macrocyclic inhibitors of hepatitis C virus NS3-4A serine protease” (Bioorg Med Chem Lett, 2006).

The molecules below were run against NS3 (Hepatitis C virus, UniProt A3EZJ3) (assay: Binding affinity to HCV NS3 protease).
Parameters: species or system Hepacivirus hominis

Chain of NS3 (A3EZJ3 whole entry): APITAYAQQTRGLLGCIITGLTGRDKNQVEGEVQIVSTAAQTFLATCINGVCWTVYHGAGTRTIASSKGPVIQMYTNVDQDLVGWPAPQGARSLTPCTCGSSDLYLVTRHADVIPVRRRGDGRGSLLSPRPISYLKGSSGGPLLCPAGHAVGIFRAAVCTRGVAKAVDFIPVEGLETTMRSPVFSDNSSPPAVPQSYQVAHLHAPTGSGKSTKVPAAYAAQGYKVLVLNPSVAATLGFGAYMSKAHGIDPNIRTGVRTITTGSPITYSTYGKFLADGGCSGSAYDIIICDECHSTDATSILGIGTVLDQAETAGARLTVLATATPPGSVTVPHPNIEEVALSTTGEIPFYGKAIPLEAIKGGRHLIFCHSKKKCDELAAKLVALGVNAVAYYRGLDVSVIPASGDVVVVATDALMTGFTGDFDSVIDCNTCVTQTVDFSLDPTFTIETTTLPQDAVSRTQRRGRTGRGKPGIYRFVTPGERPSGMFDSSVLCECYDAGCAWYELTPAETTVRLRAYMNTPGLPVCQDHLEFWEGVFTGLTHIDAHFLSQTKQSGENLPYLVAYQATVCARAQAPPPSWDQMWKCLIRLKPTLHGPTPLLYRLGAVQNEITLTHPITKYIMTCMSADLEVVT

Ki [nM]	SMILES
8	CCCC(NC(=O)[C@@H]1C[C@@H]2CN1C(=O)[C@H](C1CCCCC1)NC(=O)Cc1cccc(c1)OCCCO2)C(=O)C(=O)NCC(=O)N[C@H](C(=O)N(C)C)c1ccccc1 (some centres not stated)
6	CCCC(NC(=O)[C@@H]1C[C@@H]2CN1C(=O)[C@H](C1CCCC(C(=O)O)C1)NC(=O)Cc1cccc(c1)OCCCO2)C(=O)C(=O)NCC(=O)N[C@H](C(=O)N(C)C)c1ccccc1 (some centres not stated)
30	CCCC(NC(=O)[C@@H]1C[C@@H]2CN1C(=O)[C@H]([C@H]1CC[C@@H](C(=O)O)CC1)NC(=O)Cc1cccc(c1)OCCCO2)C(=O)C(=O)NCC(=O)N[C@H](C(=O)N(C)C)c1ccccc1 (some centres not stated)
19	CCCC(NC(=O)[C@@H]1C[C@@H]2CN1C(=O)[C@H]([C@H]1CC[C@H](C(=O)O)CC1)NC(=O)Cc1cccc(c1)OCCCO2)C(=O)C(=O)NCC(=O)N[C@H](C(=O)N(C)C)c1ccccc1 (some centres not stated)
26	CCCC(NC(=O)[C@@H]1C[C@@H]2CN1C(=O)[C@H](C1CCCCC1)NC(=O)N(C)Cc1cccc(c1)OCCCO2)C(=O)C(=O)NCC(=O)N[C@H](C(=O)N(C)C)c1ccccc1 (some centres not stated)
1600	CCCC(NC(=O)[C@@H]1C[C@@H]2CN1C(=O)[C@H](C1CCCCC1)NC(=O)Nc1cccc(c1)OCCCO2)C(=O)C(=O)NCC(=O)N[C@H](C(=O)N(C)C)c1ccccc1 (some centres not stated)
30	CCCC(NC(=O)[C@@H]1C[C@@H]2CN1C(=O)[C@H](C1CCCCC1)NC(=O)Cc1cc(C)cc(c1)OCCCO2)C(=O)C(=O)NCC(=O)N[C@H](C(=O)N(C)C)c1ccccc1 (some centres not stated)
210	CCCC(NC(=O)[C@@H]1C[C@@H]2CN1C(=O)[C@H](C(C)(C)C)NC(=O)c1cccc(c1)OCCCCO2)C(=O)C(=O)NCC(=O)N[C@H](C(=O)N(C)C)c1ccccc1 (some centres not stated)
12	CCCC(NC(=O)[C@@H]1C[C@@H]2CN1C(=O)[C@H](C1CCCCC1)NC(=O)Cc1ccc(C)c(c1)OCCCO2)C(=O)C(=O)NCC(=O)N[C@H](C(=O)N(C)C)c1ccccc1 (some centres not stated)

SMILES	Ki [nM]
CCCC(NC(=O)[C@@H]1C[C@@H]2CN1C(=O)[C@H](C(C)(C)C)NC(=O)Oc1cccc(c1)OCCCO2)C(=O)C(=O)NCC(=O)N[C@H](C(=O)N(C)C)c1ccccc1 (some centres not stated)	200
CCCC(NC(=O)[C@@H]1C[C@@H]2CN1C(=O)[C@H](C1CCCCC1)NC(=O)Cc1cc(OC)cc(c1)OCCCO2)C(=O)C(=O)NCC(=O)N[C@H](C(=O)N(C)C)c1ccccc1 (some centres not stated)	32
CCCC(NC(=O)[C@@H]1C[C@@H]2CN1C(=O)[C@H](C1CCCCC1)NC(=O)N(C)c1cccc(c1)OCCCO2)C(=O)C(=O)NCC(=O)N[C@H](C(=O)N(C)C)c1ccccc1 (some centres not stated)	90
